Laboratory results from patent US20250090689A1, “[…] FOR TREATING EPILEPSY AND NEUROPATHIC PAIN” (Trames Bio, Inc., priority 2022, published 2025).

Target: T1, CODA71 receptor (Homo sapiens, UniProt P36544, F159M/H163T/I152M/R155K/V154L/W156N/Y151P)
T1 construct: expressed in transfected cells; host or cells: mouse brain neurons transduced in vivo with AAV carrying expression cassettes #11, #13, #33, #34, #35, #36 (KA focal epilepsy model)
Test: kainic acid (KA) focal epilepsy mouse model, seizure frequency after repeated dosing of TC-5619
Format: in vivo
Excerpt: Six expression cassettes—#11, #13, #33, #34, #35, and #36 in Table 2—were each packaged into the AAV vector and tested in a kainic acid (KA) focal epilepsy mouse model. The animals were then monitored for seizure frequency following repeated dosing of TC-5619, an activator of the CODA71 receptor transgene encoded by these expression cassettes.

T1 sequence (P36544 with tags, fused parts or gaps Y151P/I152M/V154L/R155K/W156N/F159M/H163T): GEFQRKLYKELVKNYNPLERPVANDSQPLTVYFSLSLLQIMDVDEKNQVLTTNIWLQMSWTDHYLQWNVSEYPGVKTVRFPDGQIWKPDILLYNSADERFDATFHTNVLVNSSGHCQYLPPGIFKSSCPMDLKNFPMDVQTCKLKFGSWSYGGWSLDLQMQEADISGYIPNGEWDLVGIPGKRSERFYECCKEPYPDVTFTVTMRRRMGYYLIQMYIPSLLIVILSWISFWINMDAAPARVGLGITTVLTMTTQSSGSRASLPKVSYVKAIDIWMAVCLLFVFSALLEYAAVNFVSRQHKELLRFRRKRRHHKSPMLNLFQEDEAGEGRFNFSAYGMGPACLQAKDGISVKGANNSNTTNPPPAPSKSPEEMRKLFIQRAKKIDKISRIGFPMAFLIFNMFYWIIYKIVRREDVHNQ

## O=C(N[C@@H]1C2CCN(CC2)[C@H]1Cc1cccnc1)c1cc2ccccc2o1 [TC-5619]
Higher dose ranges of TC-5619, KA mice with AAV-delivered CODA71 cassettes
  seizure burden: significantly reduced seizure burden
Repeated dosing of TC-5619 in KA mice injected with AAV carrying cassettes #11, #13, #33, #34, #35 or #36, FIG. 7
  seizure frequency: dose-dependent reduction of seizure frequency
Repeated single doses of TC-5619 followed by washout
  residual effect after washout (return to baseline): no residual effect
